We go through five compounds from patent US20230183193A1, “4-DIFLUOROMETHYL BENZOYL AMIDES WITH HERBICIDAL ACTION” (BAYER CROPSCIENCE AKTIENGESELLSCHAFT, priority 2017, published 2023).

What all share (assay type): in vivo
Test [1] has as its system Amaranthus retroflexus. The experiment in a line: Post-emergence herbicidal action, AMARE. As to conditions: 80 g/ha, Table D. As for the experimental part: (§1) Seeds of monocotyledonous and dicotyledonous weed and crop plants are laid out in sandy loam soil in wood-fiber pots, covered with soil and cultivated in a greenhouse under good growth conditions. 2 to 3 weeks after sowing, the test plants are treated at the one-leaf stage. The compounds of the invention, formulated in the form of wettable powders (WP) or as emulsion concentrates (EC), are then sprayed onto the green parts of the plants in the form of an aqueous suspension or emulsion at a water application rate equating to […], with addition of 0.2% wetting agent. After the test plants have been left to stand in the greenhouse under optimal growth conditions for about 3 weeks, the action of the preparations is assessed visually in comparison to untreated controls (herbicidal action in percent (%): 100% activity=the plants have died, 0% activity=like control plants). […] At the same time, inventive compounds leave Gramineae crops such as barley, wheat, rye, millet/sorghum, corn or rice virtually undamaged when applied post-emergence, even at high active compound dosages. In addition, some substances are also harmless to dicotyledonous crops such as soya, cotton, oilseed rape, sugar beet or potatoes. Some of the compounds according to the invention have high selectivity and are therefore suitable for controlling unwanted vegetation in agricultural crops by the post-emergence method. The data of Tables C and D below illustrate, in an exemplary manner, the […] herbicidal action of the compounds according to the invention, the herbicidal activity being stated in percent.
(§2) For comparison, the herbicidal activity of numerous compounds according to the invention was tested with the structurally closest compounds known from the documents WO 2011/035874, WO 2012/028579 and WO 2012/126932, by the pre- and post-emergence method.

The test system of test [2] is Abutilon theophrasti. Briefly: Post-emergence herbicidal action, ABUTH. The settings on record: 80 g/ha, Table D. As for the experimental part:
as §1, §2

The test system of test [3] is Setaria viridis. Briefly: Post-emergence herbicidal action, SETVI. The settings on record: 80 g/ha, Table C. As for the experimental part:
as §1, §2

Test [4] has as its system Stellaria media. Briefly: Pre-emergence herbicidal action, STEME. The settings on record: dosage 320 g/ha, scored visually after 3 weeks vs untreated controls.
Text: (§3) 1. Pre-Emergence Herbicidal Action Against Harmful Plants Seeds of monocotyledonous and dicotyledonous weed plants and crop plants are laid out in sandy loam soil in wood-fiber pots and covered with soil. The compounds of the invention, formulated in the form of wettable powders (WP) or as emulsion concentrates (EC), are then applied to the surface of the covering soil in the form of an aqueous suspension or emulsion at a water application rate equating to […], with addition of 0.2% wetting agent. After the treatment, the pots are placed in a greenhouse and kept under good growth conditions for the trial plants. The damage to the test plants is scored visually after a test period of 3 weeks by comparison with untreated controls (herbicidal activity in percent (%): 100% activity=the plants have died, 0% activity=like control plants).
as §2

For test [5], the system named is Alopecurus myosuroides. The experiment in a line: Pre-emergence herbicidal action, ALOMY. As to conditions: dosage 320 g/ha, scored visually after 3 weeks vs untreated controls.
Text: as §3, §2

Test [6] relates to Viola tricolor. Briefly: Post-emergence herbicidal action, VIOTR. The settings on record: 80 g/ha, Table D. As for the experimental part:
as §1, §2

Test [7] relates to Abutilon theophrasti. The experiment in a line: Pre-emergence herbicidal action, ABUTH. As to conditions: dosage 320 g/ha, scored visually after 3 weeks vs untreated controls.
Text: as §3, §2

Test [8] concerns Cyperus serotinus. The experiment in a line: Pre-emergence herbicidal action, CYPES. As to conditions: dosage 320 g/ha, scored visually after 3 weeks vs untreated controls.
Text: as §3, §2

Test [9] relates to Amaranthus retroflexus. Briefly: Pre-emergence herbicidal action, AMARE. As to conditions: dosage 320 g/ha, scored visually after 3 weeks vs untreated controls.
Text: as §3, §2

The subject of test [10] is ECHCG. Briefly: Post-emergence herbicidal action, ECHCG. The settings on record: 80 g/ha, Table C. As for the experimental part:
as §1

In test [11] the test system is Setaria viridis. The experiment in a line: Pre-emergence herbicidal action, SETVI. As to conditions: dosage 320 g/ha, scored visually after 3 weeks vs untreated controls.
Text: as §3, §2

Test [12] deals with Matricaria inodora. The experiment in a line: Pre-emergence herbicidal action, MATIN. The settings on record: dosage 320 g/ha, scored visually after 3 weeks vs untreated controls.
Text: as §3, §2

The test system of test [13] is Avena fatua. The experiment in a line: Pre-emergence herbicidal action, AVEFA. The settings on record: dosage 320 g/ha, scored visually after 3 weeks vs untreated controls.
Text: as §3, §2

Test [14] has as its system Viola tricolor. The experiment in a line: Pre-emergence herbicidal action, VIOTR. The settings on record: dosage 320 g/ha, scored visually after 3 weeks vs untreated controls.
Text: as §3, §2

The test system of test [15] is Stellaria media. The experiment in a line: Post-emergence herbicidal action, STEME. The settings on record: 80 g/ha, Table D. As for the experimental part: as §1, §2
In test [16] the test system is Pharbitis purpureum. The experiment in a line: Post-emergence herbicidal action, PHBPU. As to conditions: 80 g/ha, Table D. As for the experimental part:
as §1, §2

Regarding `CCS(=O)(=O)c1c(C(F)F)ccc(C(=O)Nc2nnnn2C)c1F` [Example 1-42], the “herbicidal activity AMARE” value in test [1] and in test [9] was 100% in each case. Further, the entries for the “herbicidal activity ABUTH” value in [2] and in test [7] were 90% and 100%, respectively. Further, the “herbicidal activity SETVI” value is reported as 90% in test [3] and 100% in test [11]. The “Herbicidal activity STEME” value in test [4] and in test [15] was 100% in each case. In addition, in test [5], the “herbicidal activity ALOMY” value amounted to 100%. Also, the “herbicidal activity VIOTR” value in test [6] and in test [14] was 100% in each case. The “herbicidal activity CYPES” value in test [8] is 100%. Moreover, the “Herbicidal activity ECHCG” value in test [10] turned out to be 80%. For the same compound, the “herbicidal activity MATIN” value in [12] is 100%. Moreover, the “herbicidal activity AVEFA” value in test [13] came out at 100%. The “Herbicidal activity PHBPU” value in test [16] was found to be 100%.

In the case of `CCSc1c(C(F)F)ccc(C(=O)Nc2ncnn2C)c1C` [Example 4-4], the “herbicidal activity AMARE” value in test [1] and in test [9] was 100% each time. In [2], the “herbicidal activity ABUTH” value is 80%. For the same compound, the “herbicidal activity SETVI” value in test [3] was determined as 90%. Further, the figures for the “Herbicidal activity STEME” value in [4] and in [15] were 100% and 90%, respectively. Besides, the “herbicidal activity VIOTR” value in [6] and in test [14] was 100% in each case. Besides, the “Herbicidal activity ECHCG” value in test [10] was determined as 100%. In addition, the “herbicidal activity MATIN” value in [12] is given as 100%. For the same compound, in test [16], the “Herbicidal activity PHBPU” value was 80%.

For the compound `CC[S+]([O-])c1c(C(F)F)ccc(C(=O)Nc2ncnn2C)c1C` (centres unmarked) [Example 4-5], the “herbicidal activity AMARE” value in [1] is 90%; in [9] it was 100%. Further, the “herbicidal activity ABUTH” value in test [2] is listed as 80%. Besides, the “herbicidal activity SETVI” value in test [3] is given as 90%. The “herbicidal activity VIOTR” value in test [6] and in test [14] was 100% in each case. Also, the “Herbicidal activity ECHCG” value in [10] is 90%. Further, in test [12], the “herbicidal activity MATIN” value is 90%. Moreover, the “Herbicidal activity STEME” value in test [15] is recorded as 90%. Further, the “Herbicidal activity PHBPU” value in test [16] was found to be 90%.

For the compound `CCS(=O)(=O)c1c(C(F)F)ccc(C(=O)Nc2ncnn2C)c1C` [Example 4-6], the “herbicidal activity AMARE” value in test [1] and in [9] was 100% throughout. Further, the “herbicidal activity ABUTH” value in test [2] and in test [7] was 100% in each case. Moreover, the “herbicidal activity SETVI” value came out at 100% in [3] and 90% in test [11]. Further, the “Herbicidal activity STEME” value in test [4] is listed as 90%; in test [15], 100%. Besides, the “herbicidal activity VIOTR” value in test [6] and in [14] was 100% each time. In addition, the “herbicidal activity CYPES” value in [8] came out at 100%. Moreover, the “Herbicidal activity ECHCG” value in [10] is recorded as 100%. For the same compound, in [12], the “herbicidal activity MATIN” value was 100%. Besides, the “Herbicidal activity PHBPU” value in test [16] was 80%.

Turning to `CC[S+]([O-])c1c(C(F)F)ccc(C(=O)Nc2ncnn2C)c1F` (centres unmarked) [Example 4-41], the figures for the “herbicidal activity AMARE” value in test [1] and in [9] were 90% and 100%, respectively. The “herbicidal activity ABUTH” value in test [2] and in test [7] was 100% throughout. Besides, the “Herbicidal activity STEME” value in test [4] is reported as 80%; in test [15] it was 90%. For the same compound, the “herbicidal activity VIOTR” value in test [6] and in test [14] was 90% each time. Further, the “Herbicidal activity ECHCG” value in test [10] is 80%. Besides, in [11], the “herbicidal activity SETVI” value is 80%. Further, the “Herbicidal activity PHBPU” value in test [16] amounted to 90%.
